Key:
EPO receptor = molecular target: T1, EPO receptor (Homo sapiens, UniProt P19235); conditions: cited from earlier work
T1 sequence (P19235 25-508): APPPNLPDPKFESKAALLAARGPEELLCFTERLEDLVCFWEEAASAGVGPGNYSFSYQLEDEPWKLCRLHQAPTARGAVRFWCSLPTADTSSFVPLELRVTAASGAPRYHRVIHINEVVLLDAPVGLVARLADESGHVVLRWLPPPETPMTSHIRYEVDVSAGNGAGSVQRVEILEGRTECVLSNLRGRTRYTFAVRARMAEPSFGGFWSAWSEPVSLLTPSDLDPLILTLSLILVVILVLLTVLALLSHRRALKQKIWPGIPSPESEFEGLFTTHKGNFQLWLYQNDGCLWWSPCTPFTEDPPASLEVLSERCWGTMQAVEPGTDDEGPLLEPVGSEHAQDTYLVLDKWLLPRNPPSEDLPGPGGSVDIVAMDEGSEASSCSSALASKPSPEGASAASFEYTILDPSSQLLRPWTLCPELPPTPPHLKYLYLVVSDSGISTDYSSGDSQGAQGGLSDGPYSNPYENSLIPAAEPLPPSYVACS

[1] = in 50% serum; cited from earlier work
[2] = cited from earlier work
[3] = tested on: cells that express the EPO receptor; assay: complement lysis of cells that express the EPO receptor (immune effector function); assay type: cell-based
Source text: It has been shown that mutation of two […] (L) residues, L234 & L235, in the IgG1 lower hinge region to alanine (A) will abrogate the ability of the immunoglobulin to mediate complement dependent cytotoxicity (CDC) and antibody dependant cellular cytotoxicity (ADCC) (Hezereh et al., 2001, J. Virol., vol. 75 (24), 12161-68). […] This may be due to the low number of receptors that are found on erythroid progenitor cells.

[4] = serum concentration by ELISA / half-life in normal mice; assay type: in vivo; conditions: serum concentrations by ELISA
Description: (§1) In vivo studies were done in normal mice to compare the half-life of EMP-Hinge core mimetibody to that of rHuEPO and to compare their effects on erythropoiesis.
The serum concentrations of both rHuEPO and EMP-Hinge core mimetibody were measured by ELISA.

[5] = tested on: EPO dependent UT-7/EPO cell line; assay: in vitro bioactivity (cell proliferation/viability, MTS) assay in EPO dependent UT-7/EPO cells; assay type: cell-based, human; conditions: for activity/potency, fold greater than the EMP-1 peptide: viability 48 hours after treatment, molar basis; for activity compared with rHuEPO: in vitro cell proliferation assay
Description: The activity of EMP-Hinge core mimetibody was first tested in an in vitro bioactivity assay. For this assay, the EPO dependent UT-7/EPO cell line, derived from a patient with acute megakaryoblastic leukemia, was used (Komatsu et al., 1993, Blood, vol. 82 (2), 456-464). These cells undergo programmed cell death 48 to 72 hours after withdraw from media supplemented with rHuEPO. Cells that have been incubated in the absence of rHuEPO for 24 hours can be saved if treated with rHuEPO or an EPO agonist. EMP-Hinge core mimetibody was added to cells starved without rHuEPO and cell viability was determined 48 hours after treatment using the tetrazolium compound MTS (CellTiter 96 Aqueous One Solution, Promega) that is metabolized by living cells to yield a product with an absorbance that can be measured. […] In addition, these same cells were stimulated with EMP-Hinge core mimetibody and tyrosine phosphorylation patterns visualized by running cell lysate through a polyacrylamide gel.

normal mice = assay: in vivo effects on erythropoiesis (hematocrit) in normal mice; conditions: for duration of response (elevated hematocrit) compared with rHuEPO / maximal hematocrit / maximal response compared with rHuEPO: normal mice, equal activity units / dosed equally
Source text: A specific, non-limiting, example of this invention is the EMP-hinge core mimetibody construct where V is the first several N-terminal amino acids of a naturally occurring HC or LC antibody, P is a single copy of the bioactive EMP-1 peptide and L is a tandem repeat of either Gly-Ser or Gly-Gly-Gly-Ser flexible linker, H is a hinge core region and CH2 & CH3 are of the IgG1 or IgG4 isotype subclass. It is thought that this structure will constrain the EMP-1 peptide, but allow sufficient flexibility such that the dimerization of the peptides as part of the assembled homodimer is stabilized. […] This construct is efficiently secreted from cells and appears to be properly folded; overcoming problems associated with 1st generation mimetibodies.
as §1

[6] = listed as EMP-Hinge core mimetibody

Substance: GGTYSCHFGPLTWVCKPQGG [EMP-1]
- activity, fold less than HuEPO (EPO receptor): 10,000 to 100,000 fold
- ex-vivo half-life [1]: 8 h

Substance: erythropoietin: glycoprotein hormone of 165 amino acids and four carbohydrate chains, primary regulator of erythropoiesis
- time at which peak serum levels are achieved ([2]; after subcutaneous administration): 5 to 24 h
- circulating half-life ([2]; intravenously administered, patients with CRF): 3 to 4 h
- detectable levels of plasma erythropoietin maintained ([2]; within the therapeutic dose range): at least 24 hours

Substance: EMP-hinge core mimetibody: V (QIQ)-EMP-1 peptide-GS or GGGS linker-hinge core CPPCP-CH2-CH3 of IgG1 or IgG4; assembled homodimer
- effector function associated effects [3]: no effector function associated affects have been observed
- complement lysis of cells that express the EPO receptor ([3]; preliminary studies): does not mediate complement lysis
- approximate half-life relative to rHuEPO [4]: at least several times
- potency, fold less than rHuEPO ([5]; UT-7/EPO cells, on a molar basis): 5 fold
- activity/potency, fold greater than the EMP-1 peptide ([5]; UT-7/EPO cells): more than 500 fold
- activity/potency, fold greater than the EMP-1 peptide ([5]; UT-7/EPO cells, listed as EMP-Hinge core mimetibody): 500 fold
- activity compared with rHuEPO [5]: substantially similar
- activity compared with rHuEPO [5, 6]: in the range of rHuEPO
- change in hematocrit (in vivo expansion of erythroid progenitors) (normal mice; in vivo): significant increases in hematocrit
- duration of response (elevated hematocrit) compared with rHuEPO (normal mice): elevated levels are maintained for a longer period
- maximal hematocrit / maximal response compared with rHuEPO (normal mice): significantly higher
- duration of response (elevated hematocrit) compared with rHuEPO (normal mice; [6]): prolonged
- maximal hematocrit / maximal response compared with rHuEPO (normal mice; [6]): higher maximal response
